Patent US4550159A, “Anthracycline compounds” (Microbial Chemistry Research Foundation, priority 1982, dated 1985)
≈ marks a conversion by molar mass, not a printed value.

Key:
[1] = tested on: L1210 cells; assay: Cytotoxicity, DNA synthesis in L1210 cells; format: cell-based; settings: Mus musculus, read-out: ID50, DNA synthesis
Description: (§1) The results are shown below.

[2] = tested on: E. coli NIHJ; assay: Antimicrobial activity, MIC by agar dilution method; format: cell-based; settings: Escherichia coli
Description: (§2) The antimicrobial activity of ditrisarubicin according to the present invention was examined. It is expressed as minimum inhibitory concentration (MIC) determined by the agar dilution method.

[3] = tested on: Serr. marcessens; assay: as above; format: cell-based
Description: as §2

[4] = tested on: S. aureus Smith; assay: as above; format: cell-based; settings: Staphylococcus aureus
Description: as §2

[5] = tested on: Sal. typhi T-63; assay: as above; format: cell-based; settings: Salmonella enterica; Sal. typhi T-63, agar dilution method
Description: as §2

[6] = tested on: M. lysodeikticus IFO 3333; assay: as above; format: cell-based; settings: Micrococcus luteus, IFO3333; M. lysodeikticus IFO 3333, agar dilution method
Description: as §2

[7] = tested on: Prot. vulgaris OX19; assay: as above; format: cell-based; settings: Proteus vulgaris
Description: as §2

[8] = tested on: B. subtilis PCI 219; assay: as above; format: cell-based; settings: Bacillus subtilis, PCI219; B. subtilis PCI 219, agar dilution method
Description: as §2

[9] = tested on: S. aureus MS8710; assay: as above; format: cell-based; settings: Staphylococcus aureus
Description: as §2

[10] = tested on: Pseu. aeruginosa A3; assay: as above; format: cell-based; settings: Pseudomonas aeruginosa
Description: as §2

[11] = tested on: Coryn. bovis 1810; assay: as above; format: cell-based; settings: Corynebacterium bovis; Coryn. bovis 1810, agar dilution method
Description: as §2

[12] = tested on: S. aureus 209 P; assay: as above; format: cell-based; settings: Staphylococcus aureus
Description: as §2

[13] = tested on: B. cereus ATCC 10702; assay: as above; format: cell-based; settings: Bacillus cereus, ATCC10702; B. cereus ATCC 10702, agar dilution method
Description: as §2

[14] = tested on: K. pnuemoniae PCI 602; assay: as above; format: cell-based; settings: K. pnuemoniae PCI 602, agar dilution method
Description: as §2

[15] = tested on: S. aureus MS9610; assay: as above; format: cell-based; settings: Staphylococcus aureus
Description: as §2

[16] = tested on: L1210 cells; assay: Cytotoxicity, growth of L1210 cells; format: cell-based; settings: Mus musculus, read-out: ID50, growth
Description: as §1

[17] = tested on: L1210 cells; assay: Cytotoxicity, RNA synthesis in L1210 cells; format: cell-based; settings: Mus musculus, read-out: ID50, RNA synthesis
Description: as §1

[18] = tested on: L1210 cells; assay: Cytotoxicity, protein synthesis in L1210 cells; format: cell-based; settings: Mus musculus; for IC50: read-out: ID50, protein synthesis
Description: as §1

[19] = tested on: L1210 leukemia cells; assay: Antitumor activity, increase of life span, L1210 leukemia cells in CDF1 mice; format: in vivo; settings: intraperitoneal, 10 days
Method: To CDF1 mice were intraperitoneally transplanted 1×10^5 L1210 leukemia cells/mouse as a suspension. After the transplantation, each 0.25 ml of a solution containing the test compound was intraperitoneally injected for 10 days, beginning on the day of transplantation. […] The increase of life span (%) compared with the control group consisting of mice administered with physiological saline solution instead of the test compound was calculated from the following equation: [formula]

[20] = Solubility; format: physicochemical

SMILES	IC50 [1] [µg/mL]	MIC [2] [µg/mL]	MIC [3] [µg/mL]	MIC [4] [µg/mL]	MIC [5] [µg/mL]	MIC [6] [µg/mL]	MIC [7] [µg/mL]	MIC [8] [µg/mL]	MIC [9] [µg/mL]	MIC [10] [µg/mL]	MIC [11] [µg/mL]	MIC [12] [µg/mL]	MIC [13] [µg/mL]	MIC [14] [µg/mL]	MIC [15] [µg/mL]	IC50 [16] [µg/mL]	IC50 [17] [µg/mL]	Increase of life span ([19]; 0.016 mg/kg/day) [%]	Increase of life span ([19]; 0.031 mg/kg/day) [%]	Increase of life span ([19]; 0.063 mg/kg/day) [%]	other results
CCC1(O)CC(OC2CC(N(C)C)C(OC3CC4OC5CC(=O)C(C)OC5OC4C(C)O3)C(C)O2)c2c(O)c3c(c(O)c2C1OC1CC(N(C)C)C(OC2CC(O)C(OC4CCC(=O)C(C)O4)C(C)O2)C(C)O1)C(=O)c1cccc(O)c1C3=O (stereo not drawn) [Ditrisarubicin A]	0.31 (≈ 0.262 µM)	50 (≈ 42.3 µM)	50 (≈ 42.3 µM)	0.39 (≈ 0.33 µM)	50 (≈ 42.3 µM)	< 0.2	50 (≈ 42.3 µM)	< 0.2	< 0.2	12.5 (≈ 10.6 µM)	0.78 (≈ 0.659 µM)	< 0.2	0.39 (≈ 0.33 µM)	50 (≈ 42.3 µM)	0.39 (≈ 0.33 µM)	0.0005 (≈ 0.000423 µM)	0.023 (≈ 0.0194 µM)	136	148	148	IC50 [18]: 8.5 µg/mL (≈ 7.18 µM); Increase of life span ([19]; 0.125 mg/kg/day): 119%; Increase of life span ([19]; 0.25 mg/kg/day): 91%; Solubility in methanol, acetone, ethyl acetate, chloroform, acetonitrile and DMSO [20]: soluble; Solubility in water, n-hexane and petroleum ether [20]: sparingly soluble
CCC1(O)CC(OC2CC(N(C)C)C(OC3CC4OC5CC(=O)C(C)OC5OC4C(C)O3)C(C)O2)c2c(O)c3c(c(O)c2C1OC1CC(N(C)C)C(OC2CC4OC5CC(=O)C(C)OC5OC4C(C)O2)C(C)O1)C(=O)c1cccc(O)c1C3=O (stereo not drawn) [Ditrisarubicin B]	0.29 (≈ 0.245 µM)	> 50	50 (≈ 42.3 µM)	0.78 (≈ 0.66 µM)	> 50	< 0.2	50 (≈ 42.3 µM)	0.39 (≈ 0.33 µM)	0.39 (≈ 0.33 µM)	25 (≈ 21.2 µM)	< 0.2	< 0.2	0.39 (≈ 0.33 µM)	50 (≈ 42.3 µM)	0.39 (≈ 0.33 µM)	0.0011 (≈ 0.000931 µM)	0.029 (≈ 0.0245 µM)	114	136	148	inhibition at 10 µg/mL ([18]; with 10 γ/ml): 23.3%; Increase of life span ([19]; 0.125 mg/kg/day): 159%; Increase of life span ([19]; 0.25 mg/kg/day): 108%; Solubility in methanol, acetone, ethyl acetate, chloroform, acetonitrile and DMSO [20]: soluble; Solubility in water, n-hexane and petroleum ether [20]: sparingly soluble
CCC1(O)CC(OC2CC(N(C)C)C(OC3CC4OC5CC(=O)C(C)OC5OC4C(C)O3)C(C)O2)c2c(O)c3c(c(O)c2C1OC1CC(N(C)C)C(OC2CCC(OC4C=CC(=O)C(C)O4)C(C)O2)C(C)O1)C(=O)c1cccc(O)c1C3=O (stereo not drawn) [Ditrisarubicin C]	0.14 (≈ 0.12 µM)	> 50	50 (≈ 42.9 µM)	0.39 (≈ 0.335 µM)	> 50	< 0.2	50 (≈ 42.9 µM)	0.39 (≈ 0.335 µM)	< 0.2	25 (≈ 21.5 µM)	< 0.2	< 0.2	0.39 (≈ 0.335 µM)	> 50	< 0.2	0.0007 (≈ 0.000601 µM)	0.014 (≈ 0.012 µM)	142	182	142	IC50 [18]: 3.2 µg/mL (≈ 2.75 µM); Increase of life span ([19]; 0.125 mg/kg/day): 148%; Increase of life span ([19]; 0.25 mg/kg/day): 114%; Solubility in methanol, acetone, ethyl acetate, chloroform, acetonitrile and DMSO [20]: soluble; Solubility in water, n-hexane and petroleum ether [20]: sparingly soluble
